Assay results from the supplement of paper PMC10307832.

Key:
Test in all cases: relative viability (nuclei count vs DMSO), 5 days (fraction); higher = more cells survive
[1] = compound: CCn1c(-c2nonc2N)nc2c(C#CC(C)(C)O)ncc(OC[C@H]3CCCNC3)c21 + CC(=O)Nc1cccc(-n2c(=O)n(C3CC3)c(=O)c3c(Nc4ccc(I)cc4F)n(C)c(=O)c(C)c32)c1 [Trametinib] (partner 0.02 µM)
Outline: (§1)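 Lung cancer cell lines were seeded in 1536-well plates and dosed by pin tool the next day, with either a single drug or a fixed anchor-drug dose combined with five library-drug doses (not always all listed) spaced in √10 steps. Five days later, one step fixed the cells and stained their nuclei (final 0.05% Triton X-100, 1% formaldehyde, 1 ug/ml Hoechst), and nuclei were counted on 4× images. Relative viability is the nuclei count in treated wells divided by the count in vehicle wells, and each value is the median of duplicate plates.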

BAM7 + Crizotinib = compound: CCOC1=CC=CC=C1N=NC2=C(NN(C2=O)C3=NC(=CS3)C4=CC=CC=C4)C [BAM7] + C[C@@H](Oc1cc(-c2cnn(C3CCNCC3)c2)cnc1N)c1c(Cl)ccc(F)c1Cl [Crizotinib] (partner 1 µM)
Outline: as §1

BAM7 + Foretinib = compound: CCOC1=CC=CC=C1N=NC2=C(NN(C2=O)C3=NC(=CS3)C4=CC=CC=C4)C [BAM7] + COc1cc2c(Oc3ccc(NC(=O)C4(C(=O)Nc5ccc(F)cc5)CC4)cc3F)ccnc2cc1OCCCN1CCOCC1 [Foretinib] (partner 0.25 µM)
Outline: as §1

[2] = compound: CCn1c(-c2nonc2N)nc2c(C#CC(C)(C)O)ncc(OC[C@H]3CCCNC3)c21 + CS(=O)(=O)N1CCN(Cc2cc3nc(-c4cccc5[nH]ncc45)nc(N4CCOCC4)c3s2)CC1 [Pictilisib] (partner 1 µM)
Outline: as §1

HARA
relative viability ([1]; first compound 0.01 µM): 0.542
relative viability ([1]; first compound 0.03162 µM): 0.852
relative viability ([1]; first compound 0.1 µM): 0.947
relative viability ([1]; first compound 0.3162 µM): 0.652
relative viability ([1]; first compound 1 µM): 0.611
relative viability (BAM7 + Crizotinib; first compound 0.5 µM): 1.1
relative viability (BAM7 + Crizotinib; first compound 5 µM): 1.15
relative viability (BAM7 + Crizotinib; first compound 15.81 µM): 0.887
relative viability (BAM7 + Crizotinib; first compound 50 µM): 1
relative viability (BAM7 + Foretinib; first compound 0.5 µM): 0.913
relative viability (BAM7 + Foretinib; first compound 5 µM): 0.833
relative viability (BAM7 + Foretinib; first compound 15.81 µM): 0.779
relative viability (BAM7 + Foretinib; first compound 50 µM): 1.02
relative viability ([2]; first compound 0.01 µM): 0.474
relative viability ([2]; first compound 0.03162 µM): 0.359
relative viability ([2]; first compound 0.1 µM): 0.376
relative viability ([2]; first compound 0.3162 µM): 0.458
relative viability ([2]; first compound 1 µM): 0.419

NCI-H2087
relative viability ([1]; first compound 0.01 µM): 0.23
relative viability ([1]; first compound 0.1 µM): 0.175
relative viability ([1]; first compound 0.3162 µM): 0.223
relative viability ([1]; first compound 1 µM): 0.174
relative viability (BAM7 + Crizotinib; first compound 0.5 µM): 0.887
relative viability (BAM7 + Crizotinib; first compound 5 µM): 0.916
relative viability (BAM7 + Crizotinib; first compound 15.81 µM): 0.856
relative viability (BAM7 + Crizotinib; first compound 50 µM): 0.7
relative viability (BAM7 + Foretinib; first compound 0.5 µM): 1.18
relative viability (BAM7 + Foretinib; first compound 5 µM): 1.23
relative viability (BAM7 + Foretinib; first compound 15.81 µM): 0.995
relative viability (BAM7 + Foretinib; first compound 50 µM): 1.12
relative viability ([2]; first compound 0.01 µM): 0.823
relative viability ([2]; first compound 0.03162 µM): 0.843
relative viability ([2]; first compound 0.1 µM): 0.805
relative viability ([2]; first compound 0.3162 µM): 0.891
relative viability ([2]; first compound 1 µM): 0.894

NCI-H1437
relative viability ([1]; first compound 0.01 µM): 0.483
relative viability ([1]; first compound 0.03162 µM): 0.508
relative viability ([1]; first compound 0.1 µM): 0.612
relative viability ([1]; first compound 0.3162 µM): 0.515
relative viability ([1]; first compound 1 µM): 0.535
relative viability (BAM7 + Crizotinib; first compound 0.5 µM): 1
relative viability (BAM7 + Crizotinib; first compound 5 µM): 1.16
relative viability (BAM7 + Crizotinib; first compound 15.81 µM): 0.53
relative viability (BAM7 + Crizotinib; first compound 50 µM): 0.937
relative viability (BAM7 + Foretinib; first compound 0.5 µM): 1.31
relative viability (BAM7 + Foretinib; first compound 5 µM): 1.2
relative viability (BAM7 + Foretinib; first compound 15.81 µM): 1.21
relative viability (BAM7 + Foretinib; first compound 50 µM): 1.2
relative viability ([2]; first compound 0.01 µM): 0.445
relative viability ([2]; first compound 0.03162 µM): 0.522
relative viability ([2]; first compound 0.1 µM): 0.432
relative viability ([2]; first compound 0.3162 µM): 0.406
relative viability ([2]; first compound 1 µM): 0.378

ChaGo-K-1
relative viability ([1]; first compound 0.01 µM): 0.843
relative viability ([1]; first compound 0.03162 µM): 0.997
relative viability ([1]; first compound 0.1 µM): 0.879
relative viability ([1]; first compound 0.3162 µM): 0.814
relative viability ([1]; first compound 1 µM): 0.78
relative viability (BAM7 + Crizotinib; first compound 0.5 µM): 1.16
relative viability (BAM7 + Crizotinib; first compound 5 µM): 1.05
relative viability (BAM7 + Crizotinib; first compound 15.81 µM): 1.12
relative viability (BAM7 + Crizotinib; first compound 50 µM): 1.15
relative viability (BAM7 + Foretinib; first compound 0.5 µM): 0.806
relative viability (BAM7 + Foretinib; first compound 5 µM): 0.928
relative viability (BAM7 + Foretinib; first compound 15.81 µM): 0.724
relative viability (BAM7 + Foretinib; first compound 50 µM): 0.983
relative viability ([2]; first compound 0.01 µM): 0.824
relative viability ([2]; first compound 0.03162 µM): 0.601
relative viability ([2]; first compound 0.1 µM): 0.7
relative viability ([2]; first compound 0.3162 µM): 0.756
relative viability ([2]; first compound 1 µM): 0.839

NCI-H650
relative viability ([1]; first compound 0.01 µM): 0.934
relative viability ([1]; first compound 0.03162 µM): 0.977
relative viability ([1]; first compound 0.1 µM): 0.938
relative viability ([1]; first compound 0.3162 µM): 0.897
relative viability ([1]; first compound 1 µM): 1.07
relative viability (BAM7 + Crizotinib; first compound 0.5 µM): 0.649
relative viability (BAM7 + Crizotinib; first compound 5 µM): 0.764
relative viability (BAM7 + Crizotinib; first compound 15.81 µM): 0.656
relative viability (BAM7 + Crizotinib; first compound 50 µM): 0.69
relative viability (BAM7 + Foretinib; first compound 0.5 µM): 0.988
relative viability (BAM7 + Foretinib; first compound 5 µM): 1.14
relative viability (BAM7 + Foretinib; first compound 15.81 µM): 1
relative viability (BAM7 + Foretinib; first compound 50 µM): 0.992
relative viability ([2]; first compound 0.01 µM): 0.867
relative viability ([2]; first compound 0.03162 µM): 0.96
relative viability ([2]; first compound 0.1 µM): 0.968
relative viability ([2]; first compound 0.3162 µM): 0.521
relative viability ([2]; first compound 1 µM): 0.758

COR-L23
relative viability ([1]; first compound 0.01 µM): 0.625
relative viability ([1]; first compound 0.03162 µM): 0.565
relative viability ([1]; first compound 0.1 µM): 0.486
relative viability ([1]; first compound 0.3162 µM): 0.382
relative viability ([1]; first compound 1 µM): 0.373
relative viability (BAM7 + Crizotinib; first compound 0.5 µM): 0.785
relative viability (BAM7 + Crizotinib; first compound 5 µM): 0.685
relative viability (BAM7 + Crizotinib; first compound 15.81 µM): 0.601
relative viability (BAM7 + Crizotinib; first compound 50 µM): 0.604
relative viability (BAM7 + Foretinib; first compound 0.5 µM): 0.891
relative viability (BAM7 + Foretinib; first compound 5 µM): 1.01
relative viability (BAM7 + Foretinib; first compound 15.81 µM): 0.897
relative viability (BAM7 + Foretinib; first compound 50 µM): 0.981
relative viability ([2]; first compound 0.01 µM): 0.794
relative viability ([2]; first compound 0.03162 µM): 0.759
relative viability ([2]; first compound 0.1 µM): 0.727
relative viability ([2]; first compound 0.3162 µM): 0.705
relative viability ([2]; first compound 1 µM): 0.674

COR-L 105
relative viability ([1]; first compound 0.01 µM): 0.451
relative viability ([1]; first compound 0.03162 µM): 0.434
relative viability ([1]; first compound 0.1 µM): 0.437
relative viability ([1]; first compound 0.3162 µM): 0.46
relative viability ([1]; first compound 1 µM): 0.499
relative viability (BAM7 + Crizotinib; first compound 0.5 µM): 0.917
relative viability (BAM7 + Crizotinib; first compound 5 µM): 1.02
relative viability (BAM7 + Crizotinib; first compound 15.81 µM): 0.787
relative viability (BAM7 + Crizotinib; first compound 50 µM): 0.718
relative viability (BAM7 + Foretinib; first compound 0.5 µM): 0.957
relative viability (BAM7 + Foretinib; first compound 5 µM): 1.24
relative viability (BAM7 + Foretinib; first compound 15.81 µM): 0.937
relative viability (BAM7 + Foretinib; first compound 50 µM): 0.979
relative viability ([2]; first compound 0.01 µM): 0.428
relative viability ([2]; first compound 0.03162 µM): 0.345
relative viability ([2]; first compound 0.1 µM): 0.333
relative viability ([2]; first compound 0.3162 µM): 0.549
relative viability ([2]; first compound 1 µM): 0.379

LK-2
relative viability ([1]; first compound 0.01 µM): 0.574
relative viability ([1]; first compound 0.03162 µM): 0.878
relative viability ([1]; first compound 0.1 µM): 0.525
relative viability ([1]; first compound 0.3162 µM): 0.686
relative viability ([1]; first compound 1 µM): 0.869
relative viability (BAM7 + Crizotinib; first compound 0.5 µM): 0.246
relative viability (BAM7 + Crizotinib; first compound 5 µM): 0.23
relative viability (BAM7 + Crizotinib; first compound 15.81 µM): 0.244
relative viability (BAM7 + Crizotinib; first compound 50 µM): 0.27
relative viability (BAM7 + Foretinib; first compound 0.5 µM): 1.15
relative viability (BAM7 + Foretinib; first compound 5 µM): 1.23
relative viability (BAM7 + Foretinib; first compound 15.81 µM): 1.18
relative viability (BAM7 + Foretinib; first compound 50 µM): 1.29
relative viability ([2]; first compound 0.01 µM): 0.509
relative viability ([2]; first compound 0.03162 µM): 0.577
relative viability ([2]; first compound 0.1 µM): 0.503
relative viability ([2]; first compound 0.3162 µM): 0.589
relative viability ([2]; first compound 1 µM): 0.729
